The assay relates to L1210 leukemia ip in BDF1 mice, survival T/C. Briefly: NCI In Vivo Anticancer Drug Screen. Data for tumor model L1210 Leukemia (intraperitoneal) in B6D2F1 (BDF1) mice. Particulars: endpoint: mean survival time, higher = longer survival. An outline of the steps: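 Read-out is survival time, reported as the treated-group measurement over the vehicle-control measurement.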
[1] abbreviates: dose: 100.0 mg/kg/injection, schedule: Q04DX003 (ip), vehicle: Klucel (hydroxypropylcellulose) (HPC).
Setting [2] is: dose: 200.0 mg/kg/injection, schedule: Q04DX003 (ip), vehicle: Klucel (hydroxypropylcellulose) (HPC).
Setting [3] is: dose: 400.0 mg/kg/injection, schedule: Q04DX003 (ip), vehicle: Klucel (hydroxypropylcellulose) (HPC).
The mark [4] stands for this setting: dose: 100.0 mg/kg/injection, schedule: Q01DX009 (ip), vehicle: saline.
[5] abbreviates: dose: 200.0 mg/kg/injection, schedule: Q01DX009 (ip), vehicle: saline.
Setting [6] is: dose: 400.0 mg/kg/injection, schedule: Q01DX009 (ip), vehicle: saline.
The mark [7] stands for this setting: dose: 75.0 mg/kg/injection, schedule: Q01DX001 (ip), vehicle: saline.
Where [8] appears, read: dose: 150.0 mg/kg/injection, schedule: Q01DX001 (ip), vehicle: saline.
[9] abbreviates: dose: 50.0 mg/kg/injection, schedule: Q01DX009 (ip), vehicle: saline.

Inconclusive results and toxic doses are left out.

Regarding `O=[N+]([O-])c1cccc(/C=C/S(=O)(=O)c2ccccc2)c1`, the T/C reads like this: (dose: 100.0 mg/kg/injection, schedule: Q01DX001 (ip), vehicle: Klucel (hydroxypropylcellulose) (HPC)) 107 % of control; under setting [1], 103 % of control; (dose: 200.0 mg/kg/injection, schedule: Q01DX001 (ip), vehicle: Klucel (hydroxypropylcellulose) (HPC)) 95 % of control; under setting [2], 103 % of control; (dose: 400.0 mg/kg/injection, schedule: Q01DX001 (ip), vehicle: Klucel (hydroxypropylcellulose) (HPC)) 104 % of control; under setting [3], 100 % of control.

Take `C=CCc1cc(OC)c2c(c1OC)C(=O)c1cccc(OC)c1C2=O`: the T/C (dose: 100.0 mg/kg/injection, schedule: Q04DX003 (ip), vehicle: saline with Tween-80) is 97 % of control and the T/C (dose: 200.0 mg/kg/injection, schedule: Q04DX003 (ip), vehicle: saline with Tween-80) was 105 % of control.

`Nc1nc(SN=Nc2ccc(S(=O)(=O)O)cc2)c2[nH]cnc2n1`: the T/C reads like this: (dose: 11.0 mg/kg/injection, schedule: Q01DX Z (ip), vehicle: alkali diluted with saline) 110 % of control; (dose: 17.0 mg/kg/injection, schedule: Q01DX Z (ip), vehicle: alkali diluted with saline) 120 % of control; (dose: 25.0 mg/kg/injection, schedule: Q01DX Z (ip), vehicle: alkali diluted with saline) 112 % of control; (dose: 38.0 mg/kg/injection, schedule: Q01DX Z (ip), vehicle: alkali diluted with saline) 104 % of control.

`O=NN(CCCl)C(=O)Nc1ccc(CCCl)cc1`: the T/C by setting is: (dose: 10.0 mg/kg/injection, schedule: Q01DX001 (ip), vehicle: carboxymethylcellulose (CMC)) 161 % of control; (dose: 20.0 mg/kg/injection, schedule: Q01DX001 (ip), vehicle: carboxymethylcellulose (CMC)) 152 % of control; (dose: 33.0 mg/kg/injection, schedule: Q01DX001 (ip), vehicle: carboxymethylcellulose (CMC)) 246 % of control; (dose: 33.0 mg/kg/injection, schedule: Q01DX009 (ip), vehicle: carboxymethylcellulose (CMC)) 107 % of control; (dose: 50.0 mg/kg/injection, schedule: Q01DX001 (ip), vehicle: carboxymethylcellulose (CMC)) 216 % of control; (dose: 50.0 mg/kg/injection, schedule: Q01DX009 (ip), vehicle: carboxymethylcellulose (CMC)) 87 % of control.

Consider `Cc1cc(F)ccc1OCC(=O)Oc1ccc([N+](=O)[O-])cc1`, for which the T/C reads like this: (dose: 100.0 mg/kg/injection, schedule: Q04DX002 (ip), vehicle: Klucel (hydroxypropylcellulose) (HPC)) 108 % of control; (dose: 200.0 mg/kg/injection, schedule: Q04DX002 (ip), vehicle: Klucel (hydroxypropylcellulose) (HPC)) 101 % of control; (dose: 400.0 mg/kg/injection, schedule: Q04DX002 (ip), vehicle: Klucel (hydroxypropylcellulose) (HPC)) 111 % of control.

As for `O=C1OC(c2ccc([N+](=O)[O-])cc2)=N/C1=C\c1ccc(Cl)cc1`, the T/C reads like this: under setting [4], 94 % of control; (dose: 100.0 mg/kg/injection, schedule: Q04DX002 (ip), vehicle: saline) 89 % of control; under setting [5], 91 % of control; (dose: 200.0 mg/kg/injection, schedule: Q04DX002 (ip), vehicle: saline) 92 % of control; under setting [6], 91 % of control; (dose: 400.0 mg/kg/injection, schedule: Q04DX002 (ip), vehicle: saline) 92 % of control.

Turning to `NN1CCCC1C(=O)O` (stereo not drawn), the T/C runs as follows: under setting [7], 97 % of control; under setting [8], 92 % of control.

Turning to `Cc1ccc(N=Nc2c(C)nc(N)nc2C)cc1`, the T/C reads like this: under setting [7], 97 % of control; under setting [8], 91 % of control.

For `CSc1ccc(NC(=O)Oc2ccccc2C(=O)OCc2ccccc2)cc1`, the T/C is, setting by setting: (dose: 100.0 mg/kg/injection, schedule: Q01DX009 (ip), vehicle: gum acacia) 95 % of control; (dose: 200.0 mg/kg/injection, schedule: Q01DX009 (ip), vehicle: gum acacia) 100 % of control; (dose: 400.0 mg/kg/injection, schedule: Q01DX009 (ip), vehicle: gum acacia) 102 % of control.

Turning to `CC(C)CC(CC(C)C)NCC(C)OC(=O)C(c1ccccc1)c1ccccc1` (stereo not drawn), the T/C is 102 % of control under setting [7]; 98 % of control under setting [8]; 102 % of control (dose: 300.0 mg/kg/injection, schedule: Q01DX001 (ip), vehicle: saline).

With `CC(=O)c1cccc(NC(=O)Oc2ccc(F)cc2Cl)c1`, the T/C reads like this: (dose: 100.0 mg/kg/injection, schedule: Q01DX009 (ip), vehicle: Klucel (hydroxypropylcellulose) (HPC)) 97 % of control; (dose: 200.0 mg/kg/injection, schedule: Q01DX009 (ip), vehicle: Klucel (hydroxypropylcellulose) (HPC)) 108 % of control.

Consider `Cn1ncc(=O)[nH]c1=O`, for which the T/C is, setting by setting: under setting [9], 100 % of control; under setting [4], 108 % of control; under setting [5], 103 % of control.

In the case of `c1ccc2c(c1)C[N+]1(Cc3ccccc3-2)CC12CCCCC2`, the T/C is, setting by setting: (dose: 12.0 mg/kg/injection, schedule: Q01DX009 (ip), vehicle: saline) 110 % of control; (dose: 25.0 mg/kg/injection, schedule: Q01DX009 (ip), vehicle: saline) 104 % of control; under setting [9], 100 % of control.

Take `COC1OC(CN(CCOS(C)(=O)=O)S(C)(=O)=O)C2OC(C)(C)OC12` (stereo not drawn): the T/C reads like this: under setting [9], 95 % of control; (dose: 50.0 mg/kg/injection, schedule: Q04DX003 (ip), vehicle: Klucel (hydroxypropylcellulose) (HPC)) 116 % of control; under setting [4], 97 % of control; under setting [1], 102 % of control; under setting [5], 95 % of control; under setting [2], 121 % of control. The T/C reads like this: under setting [6], 95 % of control; under setting [3], 104 % of control.

The values are drawn from PubChem BioAssay AID248 (DTP/NCI, 2004).
